In US12723233B2, “Media and methods for differentiating natural killer cells” (STEMCELL Technologies Canada Inc., priority 2018, dated 2026):
Entries after “also recorded” stand apart in the source; their conditions may differ.

Assays:
NK cell progenitors = assay: Differentiation of cord blood CD34+-derived NK cell progenitors to CD56+ NK cells (culture days 14-28), flow cytometry and cell counts; assay type: cell-based, Human
Protocol: Human CB samples were obtained from Bloodworks NW (Seattle, WA) and CD34^+ cells were isolated using EasySep™ Human Cord Blood CD34 Positive Selection Kit II (STEMCELL Technologies, Catalogue #17896). Obtained in this way the purity of CD34^+ cells is typically higher than 90%.
The wells of a 24-well plate were coated with StemSpan™ Lymphoid Differentiation Coating Supplement (STEMCELL Technologies, Catalogue #09925) and 5000 CD34^+ cells were plated per well. The CD34^+ cells were cultured for up to 14 days in StemSpan™ SFEM II (STEMCELL Technologies, Catalogue #09605, 09655) supplemented with Lymphoid Progenitor Expansion Supplement (STEMCELL Technologies, Catalogue #09915) with media changes every 3-4 days.
After 14 days in culture, CD34^+ cell-derived NK cell progenitors were harvested. 50,000 NK cell progenitors were plated per well of an uncoated tissue culture 24-well plate. The plated NK cell progenitors were cultured for up to two weeks in NK Cell Differentiation medium (i.e StemSpan™ SFEM II (STEMCELL Technologies, Catalog # 09605, 09655) supplemented with NK Cell Differentiation Supplement (STEMCELL Technologies, Catalogue #09950), and cultured for an additional two weeks with media changes every 3-4 days. UM729 or UM171 was added to supplemented NK Cell Differentiation Medium on days 14-28. On day 28 cells were harvested for analysis or downstream applications.
Harvested cells were stained and measured by flow cytometry for expression of the NK cell lineage marker CD56. Dead cells were excluded by light scatter profile and 7-AAD or DRAQ7 staining. The results in FIGS. 1 and 2 at condition “0” (plotted on the x-axis) indicate the frequency and yield of CD56^+ NK cells that result from experiments that follows the protocol described above but in the absence of UM171 or UM729. Cell counts were obtained using the NucleoCounter NC250. Yield was calculated by dividing the resulting cell number by the number of cells initially seeded. Yields of specific cell types were obtained by multiplying total yield by cell frequency.
Cells were cultured as described in Example 1, with the exception that the up to two week culture of NK cell progenitors (i.e. culture days 14-28) in NK Cell Differentiation medium occurred in the presence or absence of UM171 or UM729.
The effects of UM171 and UM729 were tested across a range of concentrations: 0 nM, 50 nM, 100 nM, 150 nM and 200 nM for UM171; and 0 μM, 0.25 μM, 0.5 μM, 1 μM, and 2 μM for UM729.
CD34^+ CB cells were isolated and cultured as described in Example 1 up to the day 14 time point. Day 14 NK cell progenitors were further cultured in NK Cell Differentiation medium, essentially as described in Example 1, except in the absence of an added pyrimidoindole compound but in the presence or absence of 5 μM CH223191.

CD34+ HSPC = assay: Differentiation of CD34+ HSPC into CD7+CD5+ NK cell progenitors (days 0-14), CD7 and CD5 expression at day 14; assay type: cell-based, Human; conditions: day 0-14 culture medium supplemented with 100 nM UM171, day 14
Protocol: (§1) […] CB cells were isolated and cultured as described in Example 1. As in Example 1 and 2 the different media were used in the day 0-14 and the day 14-28 cultures, except the day 0-14 culture medium was further supplemented with 100 nM UM171 to investigate its effect on the differentiation of CD4^+ HSPC to NK cells.
(§2) In these experiments UM171 was added to the cultures at different time points: days 0-14 (+/−); days 14-28 (−/+); or days 0-28 (+/+). Cultures without UM171 were also set up (−/−). Cells were either analyzed at day 28 for CD56 expression (FIG. 8) or at day 14 for CD7 and CD5 expression (FIG. 9).

[1] = reported; cited from earlier work
[2] = test system: differentiated CD56+ NK cells; assay: Flow cytometry of NK cell, maturity and T cell markers on differentiated CD56+ NK cells at day 28; assay type: cell-based, Human; conditions: 100 nM UM171, day 28
Protocol: CD56^+ NK cells were differentiated as described in Examples 1 and 2 in the presence of 1 μM UM729 and analyzed on day 28 by flow cytometry for the expression of known NK cell markers. Cells were stained with fluorescence-conjugated antibodies against indicated NK cell markers for 15 min at 4° C. Non-specific binding was blocked using FcR blocker and 5% human or rat serum. Dead cells were excluded by light scatter profile and 7-AAD or DRAQ7 staining. Prepared samples were analyzed by flow cytometry.
CD56^+ NK cells were differentiated as described in Examples 1 and 2 in the presence of 1 μM UM729 and analyzed on day 28 by flow cytometry for the expression of known NK cell markers. The cells were stained for the markers described in this Example essentially as described in Example 3. Staining for KIR molecules was performed using a combination of two clones for the antibody, 180704 and HP-MA4, as each recognizes a distinct subset of KIR molecules. Dead cells were excluded by light scatter profile and 7-AAD or DRAQ7 staining.
Production of IFNγ by the differentiated CD56^+ NK cells was also measured. For IFNγ intracellular staining, differentiated CD56^+ NK Cells were stimulated with PMA/Ionomycin for 2 hours. Brefeldin A was added and the cells were incubated for another 2 hours. The cells were harvested and stained for CD56 and Zombie NIR viability dye then fixed, permeabilized and stained for intracellular IFNγ.
CD56^+ NK cells were differentiated as described in Examples 1 and 2 in the presence of pyrimidoindole compounds and analyzed on day 28 by flow cytometry for the expression of a T cell marker. The analyzed cells were stained for CD3 essentially as described in Example 3. Dead cells were excluded by light scatter profile and 7-AAD or DRAQ7 staining.

[3] = test system: Cord blood-derived CD34+ HSPC cells; assay: UM171 added at different times of the day 0-28 NK differentiation culture, CD56 expression at day 28; assay type: cell-based, Human; conditions: analyzed at day 28
Protocol: as §1, §2

[4] = 5 μM CH223191, no added pyrimidoindole compound, day 14 NK cell progenitors
[5] = 100 nM UM171, normalized to STD cultures, n=15
[6] = tested 0, 50, 100, 150, 200 nM, days 14-28
[7] = 100 nM UM171 between days 0-14 (+/−)
[8] = 100 nM UM171 between days 14-28 (−/+)

Row | Compound | CD56+ NK cell frequency compared to absence of CH223191 (NK cell progenitors; [4]) | CD56+ NK cell yield compared to absence of CH223191 (NK cell progenitors; [4]) | Frequency of CD56+ NK cells compared to cultures lacking UM171 (NK cell progenitors; 100 nM UM171, 14 days culture of NK cell progenitors, paired t-test p=0.013) | Increase of average frequency of NK cells compared to culture conditions not including a pyrimidoindole compound (NK cell progenitors; [5]) | Increase of average yield of NK cells compared to culture conditions not including a pyrimidoindole compound (NK cell progenitors; [5]) | Concentration at which frequency of CD56+ NK cells appeared to be highest (NK cell progenitors; [6]) | Concentration at which yield of CD56+ NK cells appeared to be highest (NK cell progenitors; [6]) | Frequency of CD7+CD5+ NK cell progenitors compared to cultures not supplemented with UM171 (CD34+ HSPC) | Yield of CD7+CD5+ NK cell progenitors compared to cultures not supplemented with UM171 (CD34+ HSPC) | Potency relative to UM729 [1] | Expression of CD3 among differentiated cells ([2]; cord blood sample of a first donor) | Expression of CD3 among differentiated cells ([2]; cord blood sample of a second donor) | CD56+ cell frequency compared to cultures lacking UM171 on days 0-14 (−/−) [3, 7] | CD56+ cell yield compared to cultures lacking UM171 on days 0-14 (−/−) [3, 7] | NK cell frequency compared to cultures lacking UM171 (−/−) [3, 8] | NK cell yield compared to cultures lacking UM171 (−/−) [3, 8] | Effect of inclusion of UM171 during days 14-28 on CD56+ NK cell frequency and yield in the (+/+) condition ([3]; 100 nM UM171 days 0-28 (+/+))
1 | Cc1ccccc1N=Nc1ccc(NC(=O)c2ccnn2C)c(C)c1 [CH223191] | decreased | decreased | – | – | – | – | – | – | – | – | – | – | – | – | – | – | –
2 | Cn1nnc(-c2ccc3c(c2)[nH]c2nc(Cc4ccccc4)nc(N[C@H]4CC[C@H](N)CC4)c23)n1 [UM171, (1r,4r)-N^1-(2-benzyl-7-(2-methyl-2H-tetrazol-5-yl)-9H-pyrimido[4,5-13]indol-4-yl)cyclohexane-1,4-diamine] | – | – | increased significantly | ~ 30% | 2 fold | 100 nM | 100 nM | clear reduction | clear reduction | approximately 10 × | virtually absent; also recorded: do not express CD3 | virtually absent; also recorded: do not express CD3 | lower | lower | increase | increase | can compensate for the effects of this compound on day 0-14 cultures
